The source of these data is patent US8377434B2, “Cosmetic composition for exfoliating skin keratin” (Amorepacific Corporation, priority 2006, dated 2013).

The assay relates to skin. Kind of assay: in vivo and ex vivo studies of N-acetyl glucosamine on skin.

Regarding `CC(=O)N[C@H]1C(O)O[C@H](CO)[C@@H](O)[C@@H]1O` (some centres unmarked) [N-acetyl glucosamine], the “production of hyaluronic acid” value is recorded as “promote the production of hyaluronic acid”. Also, the “improvement of excessive pigmentation, skin tone and barrier function” value (in vivo and ex vivo studies) is “effective in improving excessive pigmentation, skin tone and barrier function”.
